Source: patent US10329243B2, “Biphenyl derivative and uses thereof” (XI'AN LIBANG PHARMACEUTICAL CO., LTD, priority 2015, dated 2019)

How the values were obtained:
Type in all cases: in vivo, SD rats
Fas = Fas determination (immunohistochemical method), permanent cerebral ischemia model
Method: (§1) Rats were intraperitoneally injected with 10% chloral hydrate 350 mg/kg after anesthesia and opened up at the center of the neck in accordance with the Zea Longa modified method. The right common carotid artery was separated, and the right external carotid artery branches was ligated. A small opening was made at the distal end of the external carotid artery, and a previously prepared thread was inserted through the common carotid artery and the external carotid artery bifurcation into the internal carotid artery, till the anterior end of the middle cerebral artery, with an immersed depth of 18 to 19 mm. The thread was then secured, and the wound was sutured layer by layer. After the operation, the rats were placed in a clean incubator to wake up. […] The sham operation group, the permanent cerebral ischemia model group, and the Example groups were prepared strictly according to the requirements of the cerebral ischemic reperfusion model, while in the sham operation group the thread was put only into the external carotid artery. The animals were allowed to eat and drink freely after waking up. The sham operation group, the permanent cerebral ischemia model group, and the Example groups were administered intravenously the aqueous solution of the biphenyl derivatives in PEG400 at 40 mg/kg (40 mg/kg means that 40 mg of the test compound per kg of the body weight of rats) 30 min before insertion of thread and 12 h after embolism, respectively. The sham operation group and the permanent cerebral ischemia model group were injected with the same amount of blank PEG400 aqueous solution at the same time point.
(§2) 24 hours after the embolism, 8 rats in each group were sacrificed by decapitation, the brain was removed, rinsed with PBS (pH 7.4) at −20°i for 20 min, evenly sliced (with a thickness of 2 mm), stained in a 2% TTC solution at 37°% in the dark for 30 min, fixed in 10% formalin for 24 h, and photographs were taken to analyze the infarct volume. A mixture of femoral arterial and venous blood was drawn from another 8 rats in each group under anesthesia, placed in a low temperature centrifuge at 4° C., centrifuged at 3500 r/min for 20 min, and the supernatant was stored in a refrigerator at −20° C. ready for SOD and MDA detection. After the blood was drawn, a perfusion needle was insert through the apex to the ascending aorta, and saline at 4° C. was rapid infused until the effluent became clear, followed by 4% paraformaldehyde phosphate buffer perfusion for fixation; the brain was removed by craniotomy, and brain tissues 2 mm in front of and behind the optic chiasma were taken and fixed, dehydrated, rendered transparent, impregnated in wax, and embedded. Brain continuous coronary tissue pathological sections were consecutively cut for later use. The remaining 8 rats in each group were sacrificed, brains were removed, the ischemic brain hemispheres were immediately taken on an ice tray, and 10% brain tissue homogenate was prepared for the detection of IL-1β and TNF-α.
The immunohistochemical method was used for determination. Brain tissue paraffin sections were dewaxed into water, washed with 3% H2O2 to eliminate endogenous peroxidase activity, and rinsed with distilled water for 3 times. Sodium citrate buffer was used for antigen heat repairing, and blocking with calf serum was carried out at room temperature for 15 min; a rabbit anti-mouse Fas antibody was added dropwise, allowed to stand at 4°t overnight, biotinylated goat anti-rabbit IgG was added dropwise, and heated in a water bath at 37°a for 20 min. Washing with PBS for 5 min was continuously repeated 4 times, followed by staining with DAB and sufficient washing without counterstaining. The sections were then gradient dehydrated with alcohol, made transparent with toluene, sealed and fixed. Images were captured by a video camera under high-power optical microscope and inputted into the image analysis system for image analysis. […]

brain cell apoptosis = assay: Apoptosis determination (TUNEL method), permanent cerebral ischemia model
Method: as §1, §2
The TUNEL method was used for determination. Brain tissue paraffin sections were dewaxed into water, washed with 3% H2O2 to eliminate endogenous peroxidase activity, and rinsed with distilled water for 2 min, repeated 3 times. A labelling solution was added for labelling at 37°t for 2 h, and a blocking solution was added for blocking at room temperature for 30 min. A biotinylated anti-digoxin antibody was added for a reaction at 37°a for 30 min, and SABC was added for a reaction at 37°a for 30 min. The sections were continuously rinsed with TBS for 5 min repeatedly for 4 times, stained with DAB, sufficiently washed, mild counterstained with Hematoxylin, gradient dehydrated with alcohol, made transparent with toluene, sealed and fixed. Five non-overlapping fields in semi-dark band were randomly selected from each section and inputted into the image analysis system. The number of apoptotic cells was counted, and the average was designated the number of apoptotic cells.

MDA [1] = assay: MDA determination, cerebral ischemic reperfusion MCAO model
Method: as §1, with “group, the ischemic reperfusion group, and” for “group, the permanent cerebral ischemia model group, and”, “waking up. After 2 h, the thread was pulled out to achieve reperfusion. The sham” for “waking up. The sham”, “min before reperfusion and 12” for “min before insertion of thread and 12”, “h after reperfusion, respectively. The” for “h after embolism, respectively. The”, “and the ischemic reperfusion group were” for “and the permanent cerebral ischemia model group were”
as §2, with “reperfusion,” for “the embolism,”, “−20° i” for “−20°i”
(§3) SOD and MDA were determined strictly in accordance with instructions of the kit.

MDA [2] = assay: MDA determination, permanent cerebral ischemia model
Method: as §1, §2, §3

[3] = permanent cerebral ischemia model rats, 40 mg/kg intravenously, brain sections 24 h after the embolism, gray scale inversely proportional to positive expression
[4] = permanent cerebral ischemia model rats, 40 mg/kg intravenously, brain sections 24 h after the embolism, TUNEL, average of five fields
[5] = ischemic reperfusion MCAO rats, 40 mg/kg intravenously 30 min before and 12 h after reperfusion, serum, 24 h after reperfusion
[6] = permanent cerebral ischemia model rats, 40 mg/kg intravenously, serum, 24 h after the embolism
[7] = permanent cerebral ischemia model rats, edaravone 3 mg/kg

CC(C)c1cc(-c2cc(C(C)C)c(C(=O)O)c(C(C)C)c2)cc(C(C)C)c1O [Example 8 group, 4′-hydroxy-3,3′,5,5′-tetraisopropylbiphenyl-4-carboxylic acid]
Fas average gray scale (Fas; [3]): 145.24 ± 5.26 | Number of apoptotic cells (brain cell apoptosis; [4]): 27.74 ± 4.20 | MDA CONTENT (MDA [1]; [5]): 5.12 ± 0.47 mmol/mL | MDA CONTENT (MDA [2]; [6]): 5.06 ± 0.28 mmol/mL

CCCc1cc(-c2cc(CCC)c(O)c(C(C)C)c2)cc(C(C)C)c1O [Example 6 group, 4,4′-dihydroxy-3,3′-diisopropyl-5,5′-dipropylbiphenyl]
Fas average gray scale (Fas; [3]): 151.63 ± 5.58 | Number of apoptotic cells (brain cell apoptosis; [4]): 21.24 ± 5.30 | MDA CONTENT (MDA [1]; [5]): 4.26 ± 0.41 mmol/mL | MDA CONTENT (MDA [2]; [6]): 4.31 ± 0.51 mmol/mL

CC(C)c1cc(-c2cc(C(C)C)c(OC(=O)C(N)C(C)C)c(C(C)C)c2)cc(C(C)C)c1O (stereo not shown) [Example 11 group, 4′-hydroxy-3,3′,5,5′-tetraisopropylbiphenyl-2-amino-3-methylbutyrate]
Fas average gray scale (Fas; [3]): 150.72 ± 4.19 | Number of apoptotic cells (brain cell apoptosis; [4]): 26.31 ± 3.86 | MDA CONTENT (MDA [1]; [5]): 4.92 ± 0.52 mmol/mL

CC(=O)Oc1c(C(C)C)cc(-c2cc(C(C)C)c(O)c(C(C)C)c2)cc1C(C)C [Example 1 group, 4′-hydroxy-3,3′,5,5′-tetraisopropylbiphenyl-4-acetate]
MDA CONTENT (MDA [1]; ischemic reperfusion MCAO rats, 40 mg/kg intravenously 30 min before and 12 h after reperfusion, serum, 24 h after reperfusion, 40 mg/kg): 4.74 ± 0.67 mmol/mL | MDA CONTENT (MDA [2]; permanent cerebral ischemia model rats, 40 mg/kg intravenously, serum, 24 h after the embolism, 40 mg/kg): 4.49 ± 0.59 mmol/mL

3,3′,5,5′-tetraisopropylbiphenyl-4,4′-bis(oxymethylene phosphate) [Example 3 group]
Fas average gray scale (Fas; rat, in vivo, iv, 40 mg/kg): 143.39 ± 4.23 | Number of apoptotic cells (brain cell apoptosis; rat, in vivo, iv, 40 mg/kg): 29.72 ± 3.43 | MDA CONTENT (MDA [1]; rat, in vivo, iv, 40 mg/kg): 5.36 ± 0.47 mmol/mL | MDA CONTENT (MDA [2]; rat, in vivo, iv, 40 mg/kg): 5.07 ± 0.77 mmol/mL

CCCc1cc(-c2cc(CCC)c(O)c(CCC)c2)cc(CCC)c1O [Example 7 group, 4,4′-dihydroxy-3,3′,5,5′-tetrapropylbiphenyl]
Fas average gray scale (Fas; [3]): 153.46 ± 5.73 | Number of apoptotic cells (brain cell apoptosis; [4]): 20.32 ± 4.19 | MDA CONTENT (MDA [1]; [5]): 4.97 ± 0.50 mmol/mL | MDA CONTENT (MDA [2]; [6]): 4.42 ± 0.39 mmol/mL

CC(C)c1cc(-c2cc(C(C)C)c(OC(=O)CCC(=O)O)c(C(C)C)c2)cc(C(C)C)c1O [Example 5 group, [4-(4′-hydroxy-3,3′,5,5′-tetraisopropylbiphenyl)oxy]-4-carbonyl butyric acid]
Fas average gray scale (Fas; [3]): 143.02 ± 5.53 | Number of apoptotic cells (brain cell apoptosis; [4]): 23.48 ± 3.62 | MDA CONTENT (MDA [1]; [5]): 4.47 ± 0.34 mmol/mL | MDA CONTENT (MDA [2]; [6]): 4.68 ± 0.42 mmol/mL

CC(C)c1cc(-c2cc(C(C)C)c(Cl)c(C(C)C)c2)cc(C(C)C)c1O [Example 9 group, 4-chloro-4′-hydroxy-3,3′,5,5′-tetraisopropylbiphenyl]
Fas average gray scale (Fas; rat, in vivo, iv, 40 mg/kg): 144.31 ± 5.49 | Number of apoptotic cells (brain cell apoptosis; rat, in vivo, iv, 40 mg/kg): 31.44 ± 5.19 | MDA CONTENT (MDA [1]; rat, in vivo, iv, 40 mg/kg): 5.61 ± 0.71 mmol/mL | MDA CONTENT (MDA [2]; rat, in vivo, iv, 40 mg/kg): 5.26 ± 0.49 mmol/mL

CC1=NN(c2ccccc2)C(=O)C1 [Edaravone injection, edaravone, reference compound]
Fas average gray value (Fas; [7]): 138.95 ± 5.50 | Number of apoptotic cells (brain cell apoptosis; [7]): 33.19 ± 3.81 | MDA CONTENT (MDA [1]; ischemic reperfusion rat model, edaravone 3 mg/kg): 6.17 ± 0.54 mmol/mL | MDA CONTENT (MDA [2]; [7]): 5.98 ± 0.44 mmol/mL

CC(=O)OC(C)Oc1c(C(C)C)cc(-c2cc(C(C)C)c(O)c(C(C)C)c2)cc1C(C)C (stereo not shown) [Example 12 group, Ethyl 1-(4′-hydroxy-3,3′,5,5′-tetraisopropylbiphenyl-4-oxo)acetate]
Fas average gray scale (Fas; [3]): 139.48 ± 5.72 | Number of apoptotic cells (brain cell apoptosis; [4]): 32.45 ± 4.21 | MDA CONTENT (MDA [1]; [5]): 5.37 ± 0.55 mmol/mL | MDA CONTENT (MDA [2]; [6]): 6.03 ± 0.36 mmol/mL

CC(C)c1cc(-c2cc(C(C)C)c(OC=O)c(C(C)C)c2)cc(C(C)C)c1O [Example 10 group]
Fas average gray scale (Fas; [3]): 140.62 ± 3.85 | Number of apoptotic cells (brain cell apoptosis; [4]): 23.67 ± 5.13

CC(=O)Oc1c(C(C)C)cc(-c2cc(C(C)C)c(OC(C)=O)c(C(C)C)c2)cc1C(C)C [Example 2 group, 3,3′,5,5′-tetraisopropylbiphenyl-4′-diacetate]
Fas average gray scale (Fas; [3]): 149.63 ± 8.15 | Number of apoptotic cells (brain cell apoptosis; [4]): 23.27 ± 3.78 | MDA CONTENT (MDA [1]; [5]): 5.44 ± 0.49 mmol/mL | MDA CONTENT (MDA [2]; [6]): 5.10 ± 0.82 mmol/mL
